# Source: patent US6787517B1 (priority 2000, dated 2004)
# Test system: digitonin-permeabilized bovine adrenochromaffin cells
# Format: cell-based
substance,measurement,value
botulinum toxin type A,inhibition of Ca2+-stimulated catecholamine release,inhibition
